Experimental data published in the NIST ThermoML archive (doi:10.1021/je700260f).

Conditions: 303.15 K, Liquid, Vibrating tube method

FC(C(F)(F)F)C(F)(F)F [1,1,1,2,3,3,3-heptafluoropropane]
Conditions	mass density [kg/m3]
1945 kPa	1378.6
1968 kPa	1378.8
1989 kPa	1379
2014 kPa	1379.2
2041 kPa	1379.4
2063 kPa	1379.7
2084 kPa	1379.7
2105 kPa	1379.8
2131 kPa	1380.1
2283 kPa	1381.5
2308 kPa	1381.6
2332 kPa	1381.8
2353 kPa	1381.9
2378 kPa	1382.2
2402 kPa	1382.4
2418 kPa	1382.4
2439 kPa	1382.6
2461 kPa	1382.7
2482 kPa	1383
2510 kPa	1383.4
2528 kPa	1383.3
2552 kPa	1383.4
2569 kPa	1383.6
2591 kPa	1383.8
2607 kPa	1384
2632 kPa	1384.1
2651 kPa	1384.2
2673 kPa	1384.4
2695 kPa	1384.5
2718 kPa	1384.7
2737 kPa	1384.9
2762 kPa	1385
3000 kPa	1387
3022 kPa	1387.1
3068 kPa	1387.5
3088 kPa	1387.7
3114 kPa	1387.8
3136 kPa	1387.9
3203 kPa	1388.6
3222 kPa	1388.8
3271 kPa	1389
3293 kPa	1389.2
3319 kPa	1389.4
3357 kPa	1389.6
3383 kPa	1389.8
3402 kPa	1390.2
3428 kPa	1390.3
3448 kPa	1390.3
3471 kPa	1390.4
3498 kPa	1390.7
3521 kPa	1390.8
3541 kPa	1391.2
3568 kPa	1391.4
3587 kPa	1391.3
3614 kPa	1391.6
3637 kPa	1391.7
3667 kPa	1391.9
3690 kPa	1392.1
3714 kPa	1392.2
3735 kPa	1392.5
3765 kPa	1392.7
3789 kPa	1393
3820 kPa	1393
3844 kPa	1393.3
3875 kPa	1393.5
3902 kPa	1393.7
3919 kPa	1393.8
3940 kPa	1394
3964 kPa	1394.2
3991 kPa	1394.5
4022 kPa	1394.6
4050 kPa	1394.7
4072 kPa	1395
4099 kPa	1395.1
4123 kPa	1395.3
4147 kPa	1395.5
4168 kPa	1395.6
4189 kPa	1395.8
4217 kPa	1396
4249 kPa	1396.3
4273 kPa	1396.5
4290 kPa	1396.4
4416 kPa	1397.5
4444 kPa	1397.6
4466 kPa	1397.8
4497 kPa	1397.9
4524 kPa	1398
4552 kPa	1398.4
4582 kPa	1398.6
4611 kPa	1398.9
4633 kPa	1399.1
4659 kPa	1399.4
4684 kPa	1399.2
4710 kPa	1399.5
4735 kPa	1399.6
4765 kPa	1399.9
4788 kPa	1400
4811 kPa	1400.2
4875 kPa	1400.6
4904 kPa	1400.9
4933 kPa	1401.1
4958 kPa	1401.2
4984 kPa	1401.4
